Test results: ChEMBL document CHEMBL5226285, “The long and winding road of designing phosphodiesterase inhibitors for the treatment of heart failure” (Eur J Med Chem, 2021)
Blank lines part the entries; values can stand above or below the molecule they belong to.

Experiments:
[1] = target: T1, 3',5'-cyclic-AMP phosphodiesterase 4B (Homo sapiens, UniProt Q07343)
Description: Inhibition of human recombinant PDE4B1 using FAM-cAMP as substrate incubated for 20 mins

[2] = target: T2, cAMP and cAMP-inhibited cGMP 3',5'-cyclic phosphodiesterase 10A (Homo sapiens, UniProt Q9Y233)
Description: Inhibition of PDE10A (unknown origin)

[3] = target: Dual specificity calcium/calmodulin-dependent 3',5'-cyclic nucleotide phosphodiesterase 1B (Homo sapiens, UniProt Q01064)
Chain of Dual specificity calcium/calmodulin-dependent 3',5'-cyclic nucleotide phosphodiesterase 1B (Q01064 whole entry): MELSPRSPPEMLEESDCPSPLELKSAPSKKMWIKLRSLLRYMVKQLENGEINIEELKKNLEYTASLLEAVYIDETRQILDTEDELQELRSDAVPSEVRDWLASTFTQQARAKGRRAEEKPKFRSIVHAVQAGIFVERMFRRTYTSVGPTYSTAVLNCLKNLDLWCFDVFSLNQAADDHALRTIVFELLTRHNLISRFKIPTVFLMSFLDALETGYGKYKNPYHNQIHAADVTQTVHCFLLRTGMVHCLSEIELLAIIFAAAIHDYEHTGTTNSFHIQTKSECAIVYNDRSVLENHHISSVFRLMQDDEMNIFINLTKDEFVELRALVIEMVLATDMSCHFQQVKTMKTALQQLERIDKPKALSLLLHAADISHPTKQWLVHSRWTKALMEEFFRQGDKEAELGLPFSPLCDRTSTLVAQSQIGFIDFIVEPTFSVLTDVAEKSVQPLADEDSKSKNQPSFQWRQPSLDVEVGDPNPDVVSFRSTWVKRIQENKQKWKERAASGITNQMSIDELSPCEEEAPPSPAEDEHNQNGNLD
Description: Inhibition of PDE1B (unknown origin)

[4] = target: T3, cGMP-specific 3',5'-cyclic phosphodiesterase (Homo sapiens, UniProt O76074)
Description: Inhibition of PDE5A1 (unknown origin) using FAM-cGMP as substrate incubated for 60 mins by IMAP-fluorescence polarization assay

Acetylcholinesterase = target: T4, Acetylcholinesterase (Rattus norvegicus, UniProt P37136)
T4 sequence (P37136 whole entry): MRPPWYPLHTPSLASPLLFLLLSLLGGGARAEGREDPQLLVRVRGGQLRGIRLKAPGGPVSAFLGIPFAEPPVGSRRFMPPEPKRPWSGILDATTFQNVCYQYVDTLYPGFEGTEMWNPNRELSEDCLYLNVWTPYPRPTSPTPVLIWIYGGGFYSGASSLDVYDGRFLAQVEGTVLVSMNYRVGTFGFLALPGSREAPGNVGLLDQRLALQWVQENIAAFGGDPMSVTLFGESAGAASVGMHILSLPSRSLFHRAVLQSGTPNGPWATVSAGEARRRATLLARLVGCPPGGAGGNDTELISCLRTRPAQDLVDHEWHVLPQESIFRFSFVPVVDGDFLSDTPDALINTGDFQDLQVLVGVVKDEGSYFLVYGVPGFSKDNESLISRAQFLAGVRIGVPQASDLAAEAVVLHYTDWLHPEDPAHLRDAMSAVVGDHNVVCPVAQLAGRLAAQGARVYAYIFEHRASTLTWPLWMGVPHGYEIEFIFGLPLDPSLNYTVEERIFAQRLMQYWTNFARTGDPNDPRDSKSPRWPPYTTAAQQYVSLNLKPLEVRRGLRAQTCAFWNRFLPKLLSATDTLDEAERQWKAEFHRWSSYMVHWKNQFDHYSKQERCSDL
Description: Inhibition of rat cortex AChE using acetylthiocholine iodide as substrate incubated for 20 mins by DTNB-reagent based Ellman's method

[5] = target: High affinity cGMP-specific 3',5'-cyclic phosphodiesterase 9A (Homo sapiens, UniProt O76083)
Chain of High affinity cGMP-specific 3',5'-cyclic phosphodiesterase 9A (O76083 whole entry): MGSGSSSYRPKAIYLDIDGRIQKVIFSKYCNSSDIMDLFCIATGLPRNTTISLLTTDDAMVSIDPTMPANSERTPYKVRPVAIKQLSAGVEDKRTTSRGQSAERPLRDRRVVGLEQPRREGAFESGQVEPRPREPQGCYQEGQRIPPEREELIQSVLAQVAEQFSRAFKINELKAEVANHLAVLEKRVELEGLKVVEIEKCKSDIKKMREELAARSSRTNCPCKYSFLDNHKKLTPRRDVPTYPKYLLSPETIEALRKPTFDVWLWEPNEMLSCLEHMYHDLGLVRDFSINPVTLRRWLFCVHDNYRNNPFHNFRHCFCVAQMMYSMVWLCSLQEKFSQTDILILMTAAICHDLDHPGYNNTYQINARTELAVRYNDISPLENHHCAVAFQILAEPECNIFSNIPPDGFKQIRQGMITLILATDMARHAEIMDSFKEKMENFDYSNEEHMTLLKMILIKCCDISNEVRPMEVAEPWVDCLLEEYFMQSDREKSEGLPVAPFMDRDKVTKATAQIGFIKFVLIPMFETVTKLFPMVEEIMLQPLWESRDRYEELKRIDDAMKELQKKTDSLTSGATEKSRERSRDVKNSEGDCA
Description: Inhibition of PDE9A (unknown origin)

[6] = target: T2, cAMP and cAMP-inhibited cGMP 3',5'-cyclic phosphodiesterase 10A; remark: listed apart in the source
[7] = target: cGMP-dependent 3',5'-cyclic phosphodiesterase (Homo sapiens, UniProt O00408)
Chain of cGMP-dependent 3',5'-cyclic phosphodiesterase (O00408 whole entry): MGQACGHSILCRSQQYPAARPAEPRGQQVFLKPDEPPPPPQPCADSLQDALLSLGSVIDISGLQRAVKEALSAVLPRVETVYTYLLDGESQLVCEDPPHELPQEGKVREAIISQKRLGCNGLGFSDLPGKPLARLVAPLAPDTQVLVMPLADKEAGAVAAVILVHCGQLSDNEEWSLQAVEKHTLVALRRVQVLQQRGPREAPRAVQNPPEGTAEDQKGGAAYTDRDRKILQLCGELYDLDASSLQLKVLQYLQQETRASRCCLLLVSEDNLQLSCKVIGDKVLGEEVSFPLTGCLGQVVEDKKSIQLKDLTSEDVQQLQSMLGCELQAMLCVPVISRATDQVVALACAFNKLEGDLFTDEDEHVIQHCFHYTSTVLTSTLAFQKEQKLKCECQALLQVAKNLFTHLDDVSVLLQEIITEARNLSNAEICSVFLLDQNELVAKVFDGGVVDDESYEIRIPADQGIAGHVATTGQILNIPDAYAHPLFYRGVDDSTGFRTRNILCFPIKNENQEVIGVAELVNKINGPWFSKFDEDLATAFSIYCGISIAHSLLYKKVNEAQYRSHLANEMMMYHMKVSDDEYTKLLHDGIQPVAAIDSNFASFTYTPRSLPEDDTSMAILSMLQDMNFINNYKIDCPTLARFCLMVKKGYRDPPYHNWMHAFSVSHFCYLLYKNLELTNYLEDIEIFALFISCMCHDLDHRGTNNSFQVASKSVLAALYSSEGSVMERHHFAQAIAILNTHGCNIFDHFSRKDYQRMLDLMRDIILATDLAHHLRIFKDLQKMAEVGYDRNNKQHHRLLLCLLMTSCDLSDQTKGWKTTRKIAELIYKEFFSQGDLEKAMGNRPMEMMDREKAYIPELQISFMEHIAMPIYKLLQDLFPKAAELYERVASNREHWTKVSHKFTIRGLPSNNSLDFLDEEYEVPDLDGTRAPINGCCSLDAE

Phosphodiesterase 4 = Phosphodiesterase 4 (Homo sapiens, UniProt P27815+Q08499+Q07343+Q08493); assay type: protein assay
Description: Inhibition of PDE4 (unknown origin)

[8] = target: T3, cGMP-specific 3',5'-cyclic phosphodiesterase; remark: listed apart in the source
Description: Inhibition of human recombinant PDE5A using (Fl)-cAMP and TAMRA-cGMP as substrate incubated for 60 mins by IMAP-fluorescence polarization assay

[9] = target: T1, 3',5'-cyclic-AMP phosphodiesterase 4B; remark: listed apart in the source
Description: Displacement of [3H]-cAMP from full-length recombinant human PDE4B1 by fluorescence polarisation assay

[10] = target: 3',5'-cyclic-AMP phosphodiesterase 4D (Homo sapiens, UniProt Q08499)
Description: Displacement of [3H]-cAMP from full-length recombinant human PDE4D7 by fluorescence polarisation assay

[11] = target: High affinity cAMP-specific and IBMX-insensitive 3',5'-cyclic phosphodiesterase 8A (Homo sapiens, UniProt O60658); test: biochemical; assay type: cell-based, Sf9
Chain of High affinity cAMP-specific and IBMX-insensitive 3',5'-cyclic phosphodiesterase 8A (O60658 whole entry): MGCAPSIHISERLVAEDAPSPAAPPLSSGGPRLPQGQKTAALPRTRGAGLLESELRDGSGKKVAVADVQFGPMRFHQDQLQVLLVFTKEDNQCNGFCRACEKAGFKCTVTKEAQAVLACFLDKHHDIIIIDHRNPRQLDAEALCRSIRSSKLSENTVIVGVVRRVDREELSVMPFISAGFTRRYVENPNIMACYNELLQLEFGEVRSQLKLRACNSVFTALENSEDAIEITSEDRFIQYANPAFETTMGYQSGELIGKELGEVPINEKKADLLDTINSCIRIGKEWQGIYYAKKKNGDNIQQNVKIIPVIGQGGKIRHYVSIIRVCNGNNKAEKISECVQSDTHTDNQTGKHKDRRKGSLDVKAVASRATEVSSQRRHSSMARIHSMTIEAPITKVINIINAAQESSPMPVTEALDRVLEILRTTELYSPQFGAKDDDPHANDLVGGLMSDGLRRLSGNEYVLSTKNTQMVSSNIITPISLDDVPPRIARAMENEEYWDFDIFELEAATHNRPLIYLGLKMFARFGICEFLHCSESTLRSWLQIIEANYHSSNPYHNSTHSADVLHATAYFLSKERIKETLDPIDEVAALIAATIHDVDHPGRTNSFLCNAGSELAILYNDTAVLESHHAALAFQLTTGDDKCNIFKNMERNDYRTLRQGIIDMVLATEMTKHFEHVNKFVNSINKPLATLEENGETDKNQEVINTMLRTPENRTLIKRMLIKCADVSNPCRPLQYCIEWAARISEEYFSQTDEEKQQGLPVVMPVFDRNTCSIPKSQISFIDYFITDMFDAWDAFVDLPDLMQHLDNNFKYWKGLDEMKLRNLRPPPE
Description: Inhibition of human recombinant PDE8A expressed in baculovirus infected Sf9 insect cells

T1 sequence (Q07343 whole entry): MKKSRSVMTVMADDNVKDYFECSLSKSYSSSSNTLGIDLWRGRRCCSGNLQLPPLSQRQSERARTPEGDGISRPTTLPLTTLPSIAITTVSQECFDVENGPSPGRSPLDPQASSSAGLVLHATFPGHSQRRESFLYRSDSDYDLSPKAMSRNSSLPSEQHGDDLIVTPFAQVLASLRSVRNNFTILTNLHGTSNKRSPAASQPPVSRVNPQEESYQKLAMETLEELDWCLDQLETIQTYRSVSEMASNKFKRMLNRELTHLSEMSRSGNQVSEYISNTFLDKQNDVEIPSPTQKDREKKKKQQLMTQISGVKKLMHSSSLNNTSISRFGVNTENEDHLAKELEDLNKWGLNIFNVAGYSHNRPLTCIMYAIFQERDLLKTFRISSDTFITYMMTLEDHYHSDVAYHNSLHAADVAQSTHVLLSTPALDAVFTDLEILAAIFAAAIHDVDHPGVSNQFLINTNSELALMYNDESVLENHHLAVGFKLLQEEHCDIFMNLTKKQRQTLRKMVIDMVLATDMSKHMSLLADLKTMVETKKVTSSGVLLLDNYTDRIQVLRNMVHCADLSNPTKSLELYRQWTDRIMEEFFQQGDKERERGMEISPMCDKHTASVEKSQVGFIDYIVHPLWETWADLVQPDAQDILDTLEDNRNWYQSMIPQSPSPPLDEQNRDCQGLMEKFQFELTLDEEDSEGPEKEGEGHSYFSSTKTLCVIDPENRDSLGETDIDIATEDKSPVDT
T2 sequence (Q9Y233 whole entry): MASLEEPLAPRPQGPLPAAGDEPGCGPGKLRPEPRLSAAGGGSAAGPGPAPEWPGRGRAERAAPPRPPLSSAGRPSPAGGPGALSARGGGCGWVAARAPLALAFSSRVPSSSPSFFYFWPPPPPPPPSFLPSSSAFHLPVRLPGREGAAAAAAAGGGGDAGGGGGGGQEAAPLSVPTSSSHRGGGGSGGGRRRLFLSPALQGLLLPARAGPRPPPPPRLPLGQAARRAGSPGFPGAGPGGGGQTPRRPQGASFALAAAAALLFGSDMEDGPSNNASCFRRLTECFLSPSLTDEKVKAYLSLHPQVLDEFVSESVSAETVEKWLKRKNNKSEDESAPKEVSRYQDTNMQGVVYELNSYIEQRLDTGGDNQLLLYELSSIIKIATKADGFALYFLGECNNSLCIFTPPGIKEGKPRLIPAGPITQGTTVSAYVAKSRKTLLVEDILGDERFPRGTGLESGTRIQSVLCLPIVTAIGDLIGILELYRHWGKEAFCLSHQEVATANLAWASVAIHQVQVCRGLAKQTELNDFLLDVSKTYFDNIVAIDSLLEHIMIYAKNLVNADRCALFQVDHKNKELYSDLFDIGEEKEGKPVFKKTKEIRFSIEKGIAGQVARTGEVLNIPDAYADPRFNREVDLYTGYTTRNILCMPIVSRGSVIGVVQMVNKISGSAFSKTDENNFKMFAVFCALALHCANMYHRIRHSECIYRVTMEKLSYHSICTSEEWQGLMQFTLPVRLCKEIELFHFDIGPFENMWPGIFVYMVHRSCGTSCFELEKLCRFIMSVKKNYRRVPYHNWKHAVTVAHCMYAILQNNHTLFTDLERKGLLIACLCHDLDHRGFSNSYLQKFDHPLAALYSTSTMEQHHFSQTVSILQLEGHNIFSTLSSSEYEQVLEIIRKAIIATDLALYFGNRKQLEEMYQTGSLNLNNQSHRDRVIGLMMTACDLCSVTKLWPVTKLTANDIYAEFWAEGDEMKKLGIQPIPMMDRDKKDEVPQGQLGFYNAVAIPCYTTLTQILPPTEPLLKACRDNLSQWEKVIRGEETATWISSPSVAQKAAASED

SMILES: O=C1[C@H]2Cc3c([nH]c4ccccc34)[C@@H](c3ccc4c(c3)OCO4)N2C(=O)CN1CCC1CCN(Cc2ccccc2)CC1
IC50 [4]: 36 nM | IC50 (Acetylcholinesterase): 153 nM

SMILES: CCCCOc1ccc(F)c(-c2nc(C)c3nnc4ccc(OCCF)nc4n23)c1
IC50 [6]: > 1000 nM

SMILES: Cc1ncn(-c2nc3c(C(=O)N[C@@H](c4ccc(OC(F)(F)F)cc4)C(C)(C)O)cnn3cc2C)n1
IC50 [7]: 0.51 nM

SMILES: CCCN(CCC)c1ncnc2c(OC)c(OC)c(OC)cc12
IC50 [3]: 219 nM

SMILES: CC(=O)OCCOc1nc(Oc2ccc3c(c2)COB3O)ccc1C#N
IC50 (Phosphodiesterase 4): 0.7 nM

SMILES: O=C1[C@@H]2Cc3c([nH]c4ccccc34)[C@@H](c3ccc4c(c3)OCO4)N2C(=O)CN1CCC1CCN(Cc2ccccc2)CC1
IC50 [4]: 32 nM | IC50 (Acetylcholinesterase): 1530 nM

SMILES: COc1ccc([C@@H]2c3[nH]c4ccccc4c3C[C@H]3C(=O)N(CCC4CCN(Cc5ccccc5)CC4)CC(=O)N23)cc1
IC50 [4]: 15 nM | IC50 (Acetylcholinesterase): 3230 nM

SMILES: O=C1NC[C@@H]2[C@@H](c3ccc(OC(F)F)c(OCC4CC4)c3)CCN12
IC50 [1]: 18 nM

SMILES: N#CC(c1ccc(OC(F)F)c(OC2CCCC2)c1)c1ccc(Cl)nn1 (centres undefined)
IC50 [9]: 290 nM | IC50 [10]: 310 nM

SMILES: OCCN(CCO)c1nc(N2CCCCC2)c2nc(N(CCO)CCO)nc(N3CCCCC3)c2n1 [DIPYRIDAMOLE]
IC50 [11]: 4000 nM

Further lines, results first:

IC50 [1]: 27 nM
SMILES: COc1ccc([C@H]2CCN3C(=O)NC[C@H]23)cc1OC1CCCC1

IC50 [2]: 6 nM
SMILES: COc1cc2ncnc(N3CC[C@@H](Oc4cnc5ccccc5n4)C3)c2cc1OC

IC50 [3]: 130 nM
SMILES: COc1cc2ncnc(C(C)c3cccc(Cl)c3)c2cc1OC (centres undefined)

IC50 [5]: > 10000 nM
SMILES: C[C@@H](Nc1nc2c(cnn2C2CCCC2)c(=O)n1Cc1ccccc1)c1ccc(Cl)cc1

IC50 [8]: 3 nM
SMILES: CCN1CC(=O)N2[C@H](c3ccc(Cl)cc3)c3[nH]c4ccccc4c3C[C@@H]2C1=O
